In BindingDB's records for doi:10.1158/1535-7163.MCT-07-0187 (Burnham Institute For Medical Research, 2007):

Target: T1, Fatty acid synthase [2202-2509] (Homo sapiens, UniProt P49327)
T1 construct: 2202-2509
Test: Fluorogenic Assay for Detection of FASTE Inhibition
Details: pH 7.5; 37 °C
Experimental: The reaction mixture consisted of FAS thioesterase domain (FASTE) in buffer, which was preincubated with test compounds for 30 min. The reaction was initiated by addition of substrate 4-MUH. […] The inhibition constants (Ki) were calculated using the equation of Cheng and Prusoff.

T1 sequence (P49327 2202-2509): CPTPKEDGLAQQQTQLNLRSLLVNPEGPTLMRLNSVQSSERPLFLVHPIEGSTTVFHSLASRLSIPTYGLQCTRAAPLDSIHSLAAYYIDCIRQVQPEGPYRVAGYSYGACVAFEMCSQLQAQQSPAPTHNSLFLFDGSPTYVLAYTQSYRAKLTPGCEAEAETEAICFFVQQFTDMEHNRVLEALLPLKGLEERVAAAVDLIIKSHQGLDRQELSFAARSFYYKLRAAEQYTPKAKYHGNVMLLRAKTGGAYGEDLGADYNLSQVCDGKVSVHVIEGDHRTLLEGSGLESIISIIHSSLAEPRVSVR

Point of comparison: `Cc1cc(C)cc(N2C(=O)NC(=O)C(=Cc3ccc(-c4ccccc4)o3)C2=O)c1` [(5E)-1-(3,5-dimethylphenyl)-5-[(5-phenylfuran-2-yl)methylidene]-1,3-diazinane-2,4,6-trione], Ki 0.38 µM. Against it:
- O=C1NC(=O)N(Cc2ccccc2)C(=O)/C1=C/c1ccc(-c2ccccc2Cl)o1 [(5E)-1-benzyl-5-{[5-(2-chlorophenyl)furan-2-yl]methylidene}-1,3-diazinane-2,4,6-trione] — 2.2-fold higher, 0.85 µM
- Cc1ccccc1N1C(=O)NC(=O)C(=Cc2ccc(-c3ccc(F)cc3)o2)C1=O [(5E)-5-{[5-(4-fluorophenyl)furan-2-yl]methylidene}-1-(2-methylphenyl)-1,3-diazinane-2,4,6-trione] — 2.4-fold higher, 0.91 µM
- O=C1NC(=O)N(c2cccc(Br)c2)C(=O)C1=Cc1ccc(-c2ccccc2[N+](=O)[O-])o1 [(5E)-1-(3-bromophenyl)-5-{[5-(2-nitrophenyl)furan-2-yl]methylidene}-1,3-diazinane-2,4,6-trione] — 2.3-fold higher, 0.88 µM
